The values below are quoted from earlier work in patent US8329663B2, “Compositions and methods for the treatment of chronic infections” (priority 2008, dated 2012).

The conditions of data set [1]: in water.
[2] abbreviates: first (or only) pKa value listed.
Setting [3] is: second pKa value listed (polyprotic).
Where [4] appears, read: third pKa value listed (polyprotic).

Where two headings read alike, the source gives them in different places.

For the compound `NNC(=O)c1ccncc1` [Isoniazid], the “pKa (in H2O)” value in data set [1] (setting [2]) is reported as 1.82.

As to `O=P(O)(O)C(O)(Cc1cccnc1)P(=O)(O)O` [Risedronic acid], the “pKa (in H2O)” value in data set [1] (setting [2]) is 0.32; in data set [1] (setting [3]), 5.09.

Take `Cc1ccccc1-n1c(C)nc2ccccc2c1=O` [Methaqualone]: the “pKa (in H2O)” value in data set [1] (setting [2]) was 2.5.

Regarding `CC(C)[C@H](N)C(=O)OCCOCn1cnc2c(=O)[nH]c(N)nc21` [Valacyclovir], the “pKa (in H2O)” value in data set [1] (setting [2]) is 1.90; in data set [1] (setting [3]) it was 7.47; in data set [1] (setting [4]), 9.43.

With `CCS(=O)(=O)CCn1c([N+](=O)[O-])cnc1C` [Tinidazole], the “pKa (in H2O)” value in data set [1] (setting [2]) is on record as 2.34.

Take `CN(C)CCc1c[nH]c2cccc(OP(=O)(O)O)c12` [Psilocybin]: the “pKa (in H2O)” value in data set [1] (setting [2]) was 0.2.

On to `Cc1nc2n(c(=O)c1CCN1CCC(c3noc4cc(F)ccc34)CC1)CCCC2O` (stereo not shown) [9-Hydroxy-risperidone], for which the “pKa (in H2O)” value in data set [1] (setting [2]) is on record as 2.77; in data set [1] (setting [3]) it was 7.86.

Take `O=C(O)c1ccccc1Nc1cccc(C(F)(F)F)c1` [Flufenamic acid]: in data set [1] (setting [2]), the “pKa (in H2O)” value is listed as 3.9.

For the compound `C[C@H](N)C(=O)N[C@@H](C)C(=O)N[C@H]1[C@@H]2CN(c3nc4c(cc3F)c(=O)c(C(=O)O)cn4-c3ccc(F)cc3F)C[C@@H]21` [Alatrofloxacin], the “pKa (in H2O)” value is 0.64 in data set [1] (setting [2]) and 8.12 in data set [1] (setting [3]).

For the compound `CC1(C)S[C@@H]2[C@H](NC(=O)[C@H](N)c3ccc(O)cc3)C(=O)N2[C@H]1C(=O)O` [Amoxicillin], the “pKa (in H2O)” value is given as 2.8 in data set [1] (setting [2]) and 7.2 in data set [1] (setting [3]).

Consider `CC(C)CN(C[C@@H](O)[C@H](Cc1ccccc1)NC(=O)O[C@H]1CCOC1)S(=O)(=O)c1ccc(N)cc1` [Amprenavir], for which the “pKa (in H2O)” value in data set [1] (setting [2]) is reported as 1.76; in data set [1] (setting [3]), 11.54.

Regarding `CC[C@H]1OC(=O)[C@H](C)[C@@H](O[C@H]2C[C@@](C)(OC)[C@@H](O)[C@H](C)O2)[C@H](C)[C@@H](O[C@@H]2O[C@H](C)C[C@H](N(C)C)[C@H]2O)[C@](C)(O)C[C@@H](C)C(=O)[C@H](C)[C@@H](O)[C@]1(C)O` [erythromycin], in the data set with C. pneumoniae, the “in vitro susceptibility of C. pneumoniae” value was “susceptible in vitro”.

Take `C[N+](C)(C)C[C@H](O)CC(=O)[O-]` [L-carnitine]: in data set [1] (setting [2]), the “pKa (in H2O)” value was 3.8.

For `CCCN(CCC)S(=O)(=O)c1ccc(C(=O)O)cc1` [Probenicid], in data set [1] (setting [2]), the “pKa (in H2O)” value is on record as 3.4.

Regarding `CCOC(=O)c1ncn2c1CN(C)C(=O)c1cc(F)ccc1-2` [Flumazenil], the “pKa (in H2O)” value in data set [1] (setting [2]) is 1.7.

In the case of `CO[C@H]1/C=C/O[C@@]2(C)Oc3c(C)c(O)c4c(O)c(c(/C=N/N5CCN(C)CC5)c(O)c4c3C2=O)NC(=O)/C(C)=C\C=C\[C@H](C)[C@H](O)[C@@H](C)[C@@H](O)[C@@H](C)[C@H](OC(C)=O)[C@@H]1C` [Rifampin], the “pKa (in H2O)” value in data set [1] (setting [2]) is 1.7; in data set [1] (setting [3]) it was 7.9.

`C[C@H]1c2cccc(O)c2C(=O)C2=C(O)[C@]3(O)C(=O)C(C(N)=O)=C(O)[C@@H](N(C)C)[C@@H]3[C@@H](O)[C@@H]21` [Doxycycline]: the “pKa (in H2O)” value in data set [1] (setting [2]) was 3.5; in data set [1] (setting [3]), 7.7; in data set [1] (setting [4]) it was 9.5.

Consider `COc1ccc2[nH]c([S+]([O-])Cc3ncc(C)c(OC)c3C)nc2c1` (stereo not shown) [Omeprazole], for which the “pKa (in H2O)” value in data set [1] (setting [3]) is given as 8.8.

Regarding `O=C(O)c1cccc(C(=O)O)n1` [Dipicolinic Acid], the “pKa (in H2O)” value in data set [1] (setting [3]) is on record as 4.97.

For `OCCOCCN1CCN(C(c2ccccc2)c2ccc(Cl)cc2)CC1` (stereo not shown) [Hydroxyzine], in data set [1] (setting [2]), the “pKa (in H2O)” value is 1.8.

For the compound `CN(C)CCc1c[nH]c2ccccc12` [Dimethyltryptamine], the “pKa (in H2O)” value in data set [1] (setting [2]) is recorded as 2.

For `NCC1(CC(=O)O)CCCCC1` [Neurontin], the “pKa (in H2O)” value in data set [1] (setting [2]) is 3.68; in data set [1] (setting [3]), 10.70.

Take `C[C@@H]1CN(c2c(F)c(N)c3c(=O)c(C(=O)O)cn(C4CC4)c3c2F)C[C@H](C)N1` [sparfloxacin]: the “in vitro susceptibility of C. pneumoniae” value in the data set with C. pneumoniae is on record as “susceptible in vitro”.

Take `CC(=O)OCC1=C(C(=O)O)N2C(=O)[C@@H](NC(=O)CSc3ccncc3)[C@H]2SC1` [Cephapirin]: the entries for the “pKa (in H2O)” value in data set [1] (setting [2]) and in data set [1] (setting [3]) were 2.15 and 5.44, respectively.

Regarding `CC[C@H]1OC(=O)[C@H](C)[C@@H](O[C@H]2C[C@@](C)(OC)[C@@H](O)[C@H](C)O2)[C@H](C)[C@@H](O[C@@H]2O[C@H](C)C[C@H](N(C)C)[C@H]2O)[C@](C)(OC)C[C@@H](C)C(=O)[C@H](C)[C@@H](O)[C@]1(C)O` [clarithromycin], the “in vitro susceptibility of C. pneumoniae” value with C. pneumoniae is listed as “susceptible in vitro”.
